Measurements from patent publication US12570683B2, “Polymorphic form of reduced beta-nicotinamide mononucleotide disodium salt, and preparation method therefor and use thereof” (EFFEPHARM (SHANGHAI) CO., LTD., priority 2022, dated 2026).

Columns and labels:
Assay type in all cases: physicochemical
[1] = Stability, placed openly in stability chamber at 25° C. and 65% RH; conditions: open
[2] = Stability, placed openly in stability chamber at 4° C. and 75% RH; conditions: open
[3] = Exposure in air at 2-8° C., relative humidity 70-80% (crystal form transformation by absorbing water); conditions: RH 70-80%
Description: Moisture (KF) determination method: MC-2000 automatic micro-moisture tester from Min Measure Instrument and Equipment (Xiamen) Co., Ltd. and Karl Fischer reagent from Nanjing Chemical Reagent Co., Ltd.

[4] = 0 day, listed as amorphous solid, disodium salt
[5] = 1 day, listed as amorphous solid, disodium salt

SMILES: NC(=O)C1=CN([C@@H]2O[C@H](COP(=O)([O-])[O-])[C@@H](O)[C@H]2O)C=CC1.[Na+].[Na+] [Amorphous Solids, reduced β-nicotinamide mononucleotide disodium salt]
- Appearance of solid ([1]; 0 day): (powders)
- NMNH disodium salt purity (HPLC, % area) ([1]; 0 day, disodium salt): 99.30 % area
- NMNH disodium salt purity (HPLC, % area) [1, 4]: 99.30 % area
- Appearance of solid ([1]; 1 day, disodium salt): (oil)
- NMNH disodium salt purity (HPLC, % area) ([1]; 1 day, disodium salt): 99.02 % area
- Appearance of solid [1, 5]: the powder absorbed water and turned into an oil
- NMNH disodium salt purity (HPLC, % area) [1, 5]: 99.02 % area
- NMNH disodium salt purity (HPLC, % area) ([2]; 0 day, disodium salt): 99.30 % area
- NMNH disodium salt purity (HPLC, % area) [2, 4]: 99.30 % area
- NMNH disodium salt purity (HPLC, % area) ([2]; 5 day, disodium salt): 99.26 % area
- NMNH disodium salt purity (HPLC, % area) ([2]; 5 day, listed as amorphous solid, disodium salt): 99.26 % area
- Appearance of solid ([2]; 5 days): the powder solid absorbed water and became viscous to form a mass
- NMNH disodium salt purity (HPLC, % area) ([2]; 18 day, disodium salt): 99.17 % area
- NMNH disodium salt purity (HPLC, % area) ([2]; 18 day, listed as amorphous solid, disodium salt): 99.17 % area
- Appearance of solid ([2]; 18 days, disodium salt): the color became darker

SMILES: NC(=O)C1=CN([C@@H]2O[C@H](COP(=O)([O-])[O-])[C@@H](O)[C@H]2O)C=CC1.[Na+].[Na+] [Crystal form A, reduced β-nicotinamide mononucleotide disodium salt]
- NMNH disodium salt purity (HPLC, % area) ([1]; 0 day, disodium salt): 99.33 % area
- NMNH disodium salt purity (HPLC, % area) ([1]; 0 day, listed as crystal form A, disodium salt): 99.33 % area
- NMNH disodium salt purity (HPLC, % area) ([1]; 1 day, disodium salt): 99.27 % area
- NMNH disodium salt purity (HPLC, % area) ([1]; 5 day): 99.01 % area
- Appearance of solid ([1]; 5 days): still a crystal powder
- NMNH disodium salt purity (HPLC, % area) ([2]; 0 day, disodium salt): 99.33 % area
- NMNH disodium salt purity (HPLC, % area) ([2]; 5 day, disodium salt): 99.35 % area
- NMNH disodium salt purity (HPLC, % area) ([2]; 18 day, disodium salt): 99.33 % area
- NMNH disodium salt purity (HPLC, % area) ([2]; 18 day, listed as crystal form A, disodium salt): 99.33 % area
- Appearance of solid ([2]; 18 days, disodium salt): still a crystal powder

SMILES: NC(=O)C1=CN([C@@H]2O[C@H](COP(=O)([O-])[O-])[C@@H](O)[C@H]2O)C=CC1.[Na+].[Na+] [crystal form B, reduced β-nicotinamide mononucleotide disodium salt]
- Moisture (KF) after exposure ([3]; after 30 days): 29%
- Resulting solid crystal form ([3]; after 30 days): crystal form A

SMILES: NC(=O)C1=CN([C@@H]2O[C@H](COP(=O)([O-])[O-])[C@@H](O)[C@H]2O)C=CC1.[Na+].[Na+] [crystal form C, reduced β-nicotinamide mononucleotide disodium salt]
- Moisture (KF) after exposure ([3]; after 24 hours): 24%
- Resulting solid crystal form ([3]; after 24 hours): crystal form A
